Data as given in patent publication US20250064968A1, “ANTIBODY-CONJUGATED CHEMICAL […] OF D[…] H[…] LINKERS AND METHODS THEREOF” (Genentech, Inc., priority 2022, published 2025).

Assays:
BRM = molecular target: T1, BRM (Homo sapiens, UniProt P51531); test: Cell assays to determine DC50 and Dmax (nuclear BRM immunofluorescence after Ab-CIDE treatment); type: cell-based; parameters: DCmax (NCI-H1944): unit not given here; details: NCI-H1944 cells, 24 h drug treatment
T1 construct: endogenous in cells; host or cells: HCC515 and H1944 (NCI-H1944) cells
T1 sequence (P51531 whole entry): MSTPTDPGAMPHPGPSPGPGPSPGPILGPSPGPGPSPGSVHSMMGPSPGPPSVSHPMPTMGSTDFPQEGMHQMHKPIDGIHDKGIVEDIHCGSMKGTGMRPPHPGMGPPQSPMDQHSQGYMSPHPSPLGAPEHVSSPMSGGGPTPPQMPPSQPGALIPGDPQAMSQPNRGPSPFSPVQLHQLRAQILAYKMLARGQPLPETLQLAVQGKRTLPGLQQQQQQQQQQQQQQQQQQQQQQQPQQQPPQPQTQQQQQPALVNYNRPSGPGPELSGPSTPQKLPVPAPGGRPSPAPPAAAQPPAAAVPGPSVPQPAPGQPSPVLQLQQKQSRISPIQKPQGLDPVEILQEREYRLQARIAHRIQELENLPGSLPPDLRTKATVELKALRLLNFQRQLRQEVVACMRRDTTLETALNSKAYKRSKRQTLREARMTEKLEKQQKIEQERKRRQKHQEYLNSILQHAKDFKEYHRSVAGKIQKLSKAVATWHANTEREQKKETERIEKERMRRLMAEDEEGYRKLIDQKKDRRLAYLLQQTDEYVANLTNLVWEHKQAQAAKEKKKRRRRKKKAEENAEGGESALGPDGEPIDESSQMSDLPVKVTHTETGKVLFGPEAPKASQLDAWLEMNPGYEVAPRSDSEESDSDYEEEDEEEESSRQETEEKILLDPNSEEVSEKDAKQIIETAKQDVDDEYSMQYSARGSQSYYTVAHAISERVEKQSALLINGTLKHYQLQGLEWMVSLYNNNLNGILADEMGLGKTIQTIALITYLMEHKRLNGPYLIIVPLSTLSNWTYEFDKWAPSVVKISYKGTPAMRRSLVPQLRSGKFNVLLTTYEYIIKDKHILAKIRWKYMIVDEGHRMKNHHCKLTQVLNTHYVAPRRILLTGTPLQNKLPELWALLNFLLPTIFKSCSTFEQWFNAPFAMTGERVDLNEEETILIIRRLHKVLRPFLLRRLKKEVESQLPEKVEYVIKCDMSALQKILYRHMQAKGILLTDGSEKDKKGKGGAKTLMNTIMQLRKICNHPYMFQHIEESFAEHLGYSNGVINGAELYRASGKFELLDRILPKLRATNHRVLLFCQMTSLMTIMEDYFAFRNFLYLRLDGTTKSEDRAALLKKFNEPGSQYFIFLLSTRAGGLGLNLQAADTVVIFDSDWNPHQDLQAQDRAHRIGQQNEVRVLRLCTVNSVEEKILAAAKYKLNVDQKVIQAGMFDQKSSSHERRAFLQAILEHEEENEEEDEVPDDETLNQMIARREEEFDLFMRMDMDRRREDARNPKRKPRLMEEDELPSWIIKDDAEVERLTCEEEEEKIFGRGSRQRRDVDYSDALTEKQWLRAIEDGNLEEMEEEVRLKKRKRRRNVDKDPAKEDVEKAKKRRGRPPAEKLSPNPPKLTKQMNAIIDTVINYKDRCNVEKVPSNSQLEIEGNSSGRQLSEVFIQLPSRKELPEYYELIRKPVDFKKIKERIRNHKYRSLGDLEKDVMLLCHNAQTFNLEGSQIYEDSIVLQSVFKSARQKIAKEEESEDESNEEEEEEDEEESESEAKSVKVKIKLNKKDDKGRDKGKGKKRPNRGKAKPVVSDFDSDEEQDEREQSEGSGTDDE
Experimental: HCC515 and H1944 cells were plated in 384 well plates at 4000 and 2500 cells/well, respectively. The next day Ab-CIDEs were added. Following 24 h of drug treatment the cells were fixed with […] for 15 minutes. The plates were washed three time with PBS. The cells were incubated with IF blocking solution ([…], 10% BSA, 0.1% Triton, 0.010% Azide, X-100 in PBS). After 1.5 h a 2× solution of primary antibody diluted in IF blocking buffer: BRM (Cell signaling Cat #11966, 1:2000) was added. The plates were incubated over night at 4° C. The following morning cells were washed three time with PBS. Cells were then incubated with secondary antibodies (rabbit-Alexa 488 A21206 (1:2000)) for 1 h at room temperature in the dark. Hoechst H3570 at 1:5000 was added to the wells and the plates were incubated for an additional 30 minutes. Plates were wash 3×PBS and image on Opera Phenix™ High Content Screening System. Using nuclear staining as a mask, nuclear BRM mean signal intensity was quantified.

[1] = Stability of antibody-conjugated L1-CIDE at high DAR (DAR 14 synthesis); type: physicochemical; details: antibody conjugate from DAR 14 synthesis
Text: The hydrolysable linkers therefore are able to provide an advantage in obtaining high DAR, which results in high numbers of CTDEs that can be attached to a single antibody.

[2] = Ab target TfR2, conjugate DAR 5.41-6.14
[3] = Ab target TfR2, high-DAR conjugate (DAR 13.13-13.75)

| SMILES | DC50 (BRM; [2]) | DCmax (NCI-H1944) (BRM; [2]) | DC50 (NCI-H1944) (BRM; [2]) | DCmax (NCI-H1944) (BRM; [3]) | DC50 (BRM; Ab target TfR2, high-DAR conjugate (DAR 13.75)) | Stability [1] |
| --- | --- | --- | --- | --- | --- | --- |
| Cc1ncsc1-c1ccc([C@H](C)NC(=O)[C@@H]2C[C@@H](O)CN2C(=O)[C@@H](c2cc(OCCN3CCN(CCOc4cc(N5C6CCC5CN(c5cc(-c7ccccc7OCc7ccc(NC(=O)[C@H](CCCCN(C)C)NC(=O)C8(C(=O)NCCCCCNC(=O)[C@H](CO)N9C(=O)C=CC9=O)CCC8)cc7)nnc5N)C6)ccn4)[C@H](C)C3)no2)C(C)C)cc1.O=C(O)C(F)(F)F [Hy-B-CIDE-1] | 128 nM | 89 |  |  |  |  |
| COC[C@@H](C(=O)NCCCCCNC(=O)C1(C(=O)N[C@@H](CCCCN(C)C)C(=O)Nc2ccc(COc3ccccc3-c3cc(N4CC5CCC(C4)N5c4ccnc(OCCN5CCN(CCOc6cc([C@H](C(=O)N7C[C@H](O)C[C@H]7C(=O)N[C@@H](C)c7ccc(-c8scnc8C)cc7)C(C)C)on6)C[C@H]5C)c4)c(N)nn3)cc2)CCC1)N1C(=O)C=CC1=O.O=C(O)C(F)(F)F [Hy-B-CIDE-2] | 160 nM | 90 |  |  |  |  |
| Cc1ncsc1-c1ccc([C@H](C)NC(=O)[C@@H]2C[C@@H](O)CN2C(=O)[C@@H](c2cc(OCCN3CCN(CCOc4cc(N5C6CCC5CN(c5cc(-c7ccccc7OCc7ccc(NC(=O)[C@H](CCCCN(C)C)NC(=O)C8(C(=O)NCCN(C)CCN9C(=O)C=CC9=O)CCC8)cc7)nnc5N)C6)ccn4)[C@H](C)C3)no2)C(C)C)cc1.O=C(O)C(F)(F)F [Hy-B-CIDE-5] | 412 nM | 76 |  |  |  |  |
| Cc1ncsc1-c1ccc([C@H](C)NC(=O)[C@@H]2C[C@@H](O)CN2C(=O)[C@@H](c2cc(OCCN3CCN(CCOc4cc(N5C6CCC5CN(c5cc(-c7ccccc7OCc7ccc(NC(=O)[C@H](CCCCN(C)C)NC(=O)C8(C(=O)NCCCCCNC(=O)CN9C(=O)C=CC9=O)CCC8)cc7)nnc5N)C6)ccn4)[C@H](C)C3)no2)C(C)C)cc1.O=C(O)C(F)(F)F [Hy-B-CIDE-6] |  | 90 | 0.28 µg/mL |  |  |  |
| CC(C)[C@@H](C(=O)N1C[C@H](O)C[C@H]1C(=O)N[C@@H](C)c1ccc(C#N)cc1)c1cc(OCCN2CCC(O[C@H]3C[C@H](Oc4cc(N5C6CCC5CN(c5cc(-c7ccccc7OCc7ccc(NC(=O)[C@H](CCCCN(C)C)NC(=O)C8(C(=O)NCCN(C)CCN9C(=O)C=CC9=O)CCC8)cc7)nnc5N)C6)ccn4)C3)CC2)no1 [Hy-B-CIDE-7] | 205 nM | 62 |  | 75 | 89.6 nM | Stable |
| Cc1ncsc1-c1ccc([C@H](C)NC(=O)[C@@H]2C[C@@H](O)CN2C(=O)[C@@H](c2cc(OCCN3CCN(CCOc4cc(N5C6CCC5CN(c5cc(-c7ccccc7OCc7ccc(NC(=O)[C@H](CCCCN(C)C)NC(=O)C8(C(=O)NCCCCCN(C)CCN9C(=O)C=CC9=O)CCC8)cc7)nnc5N)C6)ccn4)[C@H](C)C3)no2)C(C)C)cc1.O=C(O)C(F)(F)F [Hy-B-CIDE-8] | 85.6 nM | 74 |  |  |  |  |
| CC(C)[C@@H](C(=O)N1C[C@H](O)C[C@H]1C(=O)N[C@@H](C)c1ccc(C#N)cc1)c1cc(OCCN2CCC(O[C@H]3C[C@H](Oc4cc(N5C6CCC5CN(c5cc(-c7ccccc7O)nnc5NC(=O)OCc5ccc(NC(=O)[C@H](CCCCN(C)C)NC(=O)C7(C(=O)NCCCCCN(C)CCN8C(=O)C=CC8=O)CCC7)cc5)C6)ccn4)C3)CC2)no1.O=C(O)C(F)(F)F [Hy-B-CIDE-9] | 2200 nM | 82 |  |  |  |  |
| CC(C)[C@@H](C(=O)N1C[C@H](O)C[C@H]1C(=O)N[C@@H](C)c1ccc(C#N)cc1)c1cc(OCCN2CCC(O[C@H]3C[C@H](Oc4cc(N5C6CCC5CN(c5cc(-c7ccccc7O)nnc5NC(=O)OCc5ccc(NC(=O)[C@H](CCCCN(C)C)NC(=O)C7(C(=O)NCCCCCNC(=O)[C@H](CO)N8C(=O)C=CC8=O)CCC7)cc5)C6)ccn4)C3)CC2)no1 [Hy-B-CIDE-10] | 4440 nM | 80 |  |  |  |  |
| CC(C)[C@@H](C(=O)N1C[C@H](O)C[C@H]1C(=O)N[C@@H](C)c1ccc(C#N)cc1)c1cc(OCCN2CCC(O[C@H]3C[C@H](Oc4cc(N5C6CCC5CN(c5cc(-c7ccccc7OCc7ccc(NC(=O)[C@H](CCCCN(C)C)NC(=O)C8(C(=O)NCCCCCN(C)CCN9C(=O)C=CC9=O)CCC8)cc7)nnc5N)C6)ccn4)C3)CC2)no1 [Hy-B-CIDE-11] | 23200 nM | 53 |  |  |  |  |
| CC(C)[C@@H](C(=O)N1C[C@H](O)C[C@H]1C(=O)N[C@@H](C)c1ccc(C#N)cc1)c1cc(OCCN2CCC(O[C@H]3C[C@H](Oc4cc(N5C6CCC5CN(c5cc(-c7ccccc7OCc7ccc(NC(=O)[C@H](CCCCN(C)C)NC(=O)C8(C(=O)NCCCCCNC(=O)[C@H](CO)N9C(=O)C=CC9=O)CCC8)cc7)nnc5N)C6)ccn4)C3)CC2)no1 [Hy-B-CIDE-12] | 12600 nM | 60 |  |  |  |  |
| CC(C)[C@@H](C(=O)N1C[C@H](OP(=O)(O)O)C[C@H]1C(=O)N[C@@H](C)c1ccc(C#N)cc1)c1cc(OCCN2CCC(O[C@H]3C[C@H](Oc4cc(N5C6CCC5CN(c5cc(-c7ccccc7OCc7ccc(NC(=O)[C@H](CCCCN(C)C)NC(=O)C8(C(=O)NCCN(C)CCN9C(=O)C=CC9=O)CCC8)cc7)nnc5N)C6)ccn4)C3)CC2)no1 [Hy-B-PCIDE-2] |  |  |  | 42 |  | Stable |
